According to paper PMC4723341, “Ribonuclease H/DNA Polymerase HIV-1 Reverse Transcriptase Dual Inhibitor: Mechanistic Studies on the Allosteric Mode of Action of Isatin-Based Compound RMNC6” (PLoS ONE, 2016):
Several values for one entry are separate records, joined by “and”; a condition that tells them apart may be missing. Equal entries are not always repeated. Where two headings read alike, the source gives them in different places.

What was measured:
Format in all cases: biochemical, HIV-1 group M subtype B
[1] = target: T1, HIV-1 RT-associated RNase H activity, K103N RT (Human immunodeficiency virus type 1 group M subtype B, UniProt P04585, K690N); test: RNase H activity assay, K103N RT
T1 construct: The 1:1 ration between the p66/p51 subunits was also verified; made in house; host or cells: E. coli M15
Protocol: (§1) HIV RT-associated RNase H activity was measured as described in 100 μL reaction volume containing 50 mM Tris-HCl buffer pH 7.8, 6 mM MgCl2, 1 mM dithiothreitol (DTT), 80 mM KCl, 0.25 μM hybrid RNA/DNA 5'-GAUCUGAGCCUGGGAGCU-Fluorescin-3' (HPLC, dry, QC: Mass Check) (available from Metabion) 5'-Dabcyl-AGCTCCCAGGCTCAGATC-3'(HPLC, dry, QC: Mass Check), increasing concentrations of inhibitors, whose dilution were made in water, and different amount of enzymes according to a linear range of dose-response curve: 20 ng of WT RT; 60 ng K103N RT; 37.5 ng V106A RT; 75 ng V108A RT; 5 ng Y181C RT; 50 ng Y188A RT; 30 ng Y188L RT; 100 ng E224A RT; 37.5 ng P225A RT; 20 ng P226A RT; 18 ng F227A RT; 30 ng L228A RT; 30 ng W229A RT; 10 ng M230A RT; 30 ng G231A RT; 62.5 ng N474A RT; 1 μg Y501A RT; 100 ng A502F RT; 37.5 ng A508V RT; 38 ng HIV-1 group O RT. The reaction mixture was incubated for 1 h at 37°C, stopped by addition of EDTA and products were measured with a multilabel counter plate reader Victor 3 (Perkin Elmer model 1420–051) equipped with filters for 490/528 nm (excitation/emission wavelength)

[2] = target: T2, HIV-1 RT-associated RNase H activity, N474A RT (Human immunodeficiency virus type 1 group M subtype B, UniProt P04585, N1061A); test: biochemical
T2 construct: The 1:1 ration between the p66/p51 subunits was also verified; made in house; host or cells: E. coli M15
Protocol: as §1, with “5'-[…]-Fluorescin-3'” for “5'-GAUCUGAGCCUGGGAGCU-Fluorescin-3'”, “5'-Dabcyl-[…]-3'(HPLC,” for “5'-Dabcyl-AGCTCCCAGGCTCAGATC-3'(HPLC,”

[3] = target: T3, HIV-1 RT-associated RNase H activity, Y501A RT (Human immunodeficiency virus type 1 group M subtype B, UniProt P04585, Y1088A); test: biochemical
T3 construct: The 1:1 ration between the p66/p51 subunits was also verified; made in house; host or cells: E. coli M15
Protocol: as §1, with “5'-[…]-Fluorescin-3'” for “5'-GAUCUGAGCCUGGGAGCU-Fluorescin-3'”, “5'-Dabcyl-[…]-3'(HPLC,” for “5'-Dabcyl-AGCTCCCAGGCTCAGATC-3'(HPLC,”

[4] = target: T4, HIV-1 RT-associated RNase H activity, G231A RT (Human immunodeficiency virus type 1 group M subtype B, UniProt P04585, G818A); test: RNase H activity assay, G231A RT
T4 construct: The 1:1 ration between the p66/p51 subunits was also verified; made in house; host or cells: E. coli M15
Protocol: as §1

[5] = tested on: HIV-1 RT-associated RNase H activity, G231A RT; test: RNase H activity assay, G231A RT; conditions: G231A RT
Protocol: as §1

[6] = target: T5, HIV-1 RT-associated RNase H activity, A502F RT (Human immunodeficiency virus type 1 group M subtype B, UniProt P04585, A1089F); test: RNase H activity assay, A502F RT; conditions: for Fold of increase of RNase H IC50 with respect to wt RT: A502F RT
T5 construct: The 1:1 ration between the p66/p51 subunits was also verified; made in house; host or cells: E. coli M15
Protocol: as §1

[7] = target: T6, HIV-1 RT-associated RNase H activity, V106A RT (Human immunodeficiency virus type 1 group M subtype B, UniProt P04585, V693A); test: RNase H activity assay, V106A RT
T6 construct: The 1:1 ration between the p66/p51 subunits was also verified; made in house; host or cells: E. coli M15
Protocol: as §1

[8] = target: T7, HIV-1 RT-associated RNase H activity, E224A RT (Human immunodeficiency virus type 1 group M subtype B, UniProt P04585, E811A); test: RNase H activity assay, E224A RT; conditions: for Fold of increase of RNase H IC50 with respect to wt RT: E224A RT
T7 construct: The 1:1 ration between the p66/p51 subunits was also verified; made in house; host or cells: E. coli M15
Protocol: as §1

[9] = target: T8, HIV-1 RT-associated RNase H activity, F227A RT (Human immunodeficiency virus type 1 group M subtype B, UniProt P04585, F814A); test: RNase H activity assay, F227A RT
T8 construct: The 1:1 ration between the p66/p51 subunits was also verified; made in house; host or cells: E. coli M15
Protocol: as §1

[10] = tested on: HIV-1 RT-associated RNase H activity, F227A RT; test: RNase H activity assay, F227A RT; conditions: F227A RT
Protocol: as §1

[11] = target: T9, HIV-1 RT-associated RNase H activity, V108A RT (Human immunodeficiency virus type 1 group M subtype B, UniProt P04585, V695A); test: RNase H activity assay, V108A RT
T9 construct: The 1:1 ration between the p66/p51 subunits was also verified; made in house; host or cells: E. coli M15
Protocol: as §1

[12] = target: T10, HIV-1 RT-associated RNase H activity, Y181C RT (Human immunodeficiency virus type 1 group M subtype B, UniProt P04585, Y768C); test: RNase H activity assay, Y181C RT
T10 construct: The 1:1 ration between the p66/p51 subunits was also verified; made in house; host or cells: E. coli M15
Protocol: as §1

[13] = target: T11, HIV-1 RT-associated RNase H activity, Y188L RT (Human immunodeficiency virus type 1 group M subtype B, UniProt P04585, Y775L); test: RNase H activity assay, Y188L RT
T11 construct: The 1:1 ration between the p66/p51 subunits was also verified; made in house; host or cells: E. coli M15
Protocol: as §1

[14] = target: T12, HIV-1 RT-associated RNase H activity, P225A RT (Human immunodeficiency virus type 1 group M subtype B, UniProt P04585, P812A); test: RNase H activity assay, P225A RT; conditions: for Fold of increase of RNase H IC50 with respect to wt RT: P225A RT
T12 construct: The 1:1 ration between the p66/p51 subunits was also verified; made in house; host or cells: E. coli M15
Protocol: as §1

Compound | IC50 [2] [nM] | Fold of increase of RNase H IC50 with respect to wt RT ([2]; N474A RT) | IC50 [3] [nM] | Fold of increase of RNase H IC50 with respect to wt RT ([3]; Y501A RT) | IC50 [4] [nM] | Fold of increase of RNase H IC50 with respect to wt RT [5] | IC50 [6] [µM] | Fold of increase of RNase H IC50 with respect to wt RT [6] | IC50 [7] [nM] | IC50 [8] [µM] | Fold of increase of RNase H IC50 with respect to wt RT [8] | IC50 [9] [nM] | Fold of increase of RNase H IC50 with respect to wt RT [10] | IC50 [11] [µM] | IC50 [14] [nM] | Fold of increase of RNase H IC50 with respect to wt RT [14] | other results
CC(C)c1ccc(O)c(=O)c(O)c1 [BTP, β-thujaplicinol, reference compound] | 920 ± 10 | 4.8 | 70 ± 2 | 0.4 | 250 ± 30 | 1.3 | 0.17 ± 0.03 | 0.9 | 160 ± 30 | 0.15 ± 0.03 | 0.8 | 220 ± 40 | 1.2 | 0.18 ± 0.04 | 130 ± 60 | 0.7 | IC50 ([1]; K103N RT, read-out: IC50 RNase H): 220 ± 80 nM; IC50 ([12]; Y181C RT, read-out: IC50 RNase H): 230 ± 50 nM; IC50 ([13]; Y188L RT, read-out: IC50 RNase H): 80 ± 50 nM
N#Cc1ccc(-c2csc(NN=C3C(=O)Nc4ccccc43)n2)cc1 [RMNC6, (Z)-4-(2-(2-(2-oxoindolin-3-ylidene)hydrazinyl)thiazol-4-yl)benzonitrile] | > 100000 | > 77 | > 100000 | > 77 | 1700 ± 400 | 1.3 | 13 ± 0.7 | 10.0 | 5300 ± 600 | 7.9 ± 1.1 | 6 and 6.1 | 700 ± 100 | 0.5 | 13.1 ± 2.5 | 1700 ± 200 | 1.3 | IC50 [1]: 2300 ± 100 nM; Resistance of RNase H function ([2]; N474A RT): full resistance; Resistance of RNase H function ([3]; Y501A RT): full resistance; IC50 [12]: 2100 ± 600 nM; IC50 [13]: 1600 ± 500 nM
